Laboratory results reported in patent publication US20230339919A1, “BENZO OXYGEN-CONTAINING HETEROCYCLIC COMPOUNDS AND MEDICAL APPLICATION THEREOF” (AB PHARMA LTD., priority 2020, published 2023).
Read-outs that look alike come from different tables or passages of the source.

Biological target: T1, GPR40 (Homo sapiens, UniProt O14842)
T1 construct: expressed in transfected cells; host or cells: CHO-K1
Assay: GPR40 agonist activity, FLIPR calcium assay in CHO-K1/GPR40 cells
Type: cell-based
Experimental: Inoculate CHO-K1/GPR40 cells in 384-well plates at a density of 10,000 cells/well. Cells were incubated at 37° C. for 24 hours in a 5% CO2 incubator. After the experiment, discard the cell culture medium, quickly add […] of 1× FLIPR® Calcium 6 dye containing 2.5 mM/Probenecid to each well and incubate at 37° C. for 2 hours protected from light. For the determination, different concentrations of drug ([…]) were added to the wells and the fluorescence values were read. The fluorescence excitation wavelength was 494 nm and emission wavelength was 516 nm. FLIPR instrument data, EC50 was derived from the formula Y=Bottom+(Top−Bottom)/(1+(EC50/X)^HillSlope).

[1] = GPR40 agonist activity range (EC50), CHO-K1/GPR40 cells, read-out: GPR40 activity

T1 sequence (O14842 whole entry): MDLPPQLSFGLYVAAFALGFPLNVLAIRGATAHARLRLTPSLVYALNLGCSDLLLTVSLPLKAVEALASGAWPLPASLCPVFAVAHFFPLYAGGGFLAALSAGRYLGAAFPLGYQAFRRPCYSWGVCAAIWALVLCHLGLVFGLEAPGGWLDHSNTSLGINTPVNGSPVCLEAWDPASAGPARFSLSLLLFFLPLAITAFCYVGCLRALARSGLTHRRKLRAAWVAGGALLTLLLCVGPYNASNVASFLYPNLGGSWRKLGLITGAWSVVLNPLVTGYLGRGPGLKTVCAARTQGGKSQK

Compound `O=C(O)C[C@@H]1COc2cc(OCc3cc(C(F)(F)F)cc4c3OCO4)ccc21` [IIb-53] has an EC50 [1] of 10 to 100 nM.

`O=C(O)CC1COc2cc(OCc3c(Br)ccc4c3OCO4)ccc21` (centres unmarked) [IIb-03] showed an EC50 [1] of over 100 nM.

With `O=C(O)CC1COc2cc(OCc3cccc4c3OC(F)(F)O4)c(Br)cc21` (centres unmarked) [IIb-26] the EC50 [1] was over 100 nM.

Work on `O=C(O)C[C@@H]1COc2cc(OCc3cc(F)cc4c3OCO4)ccc21` [IIb-07] yielded an EC50 [1] of 10 to 100 nM.

`O=C(O)C[C@@H]1COc2cc(OCc3cc(F)cc4c3OC(F)(F)O4)ccc21` [IIb-55] was tested, and the EC50 [1] was 10 to 100 nM.

`CC1(C)Oc2cccc(COc3ccc4c(c3)OCC4CC(=O)O)c2O1` (centres unmarked) [IIb-20] was tested, and the EC50 [1] was 10 to 100 nM.

In the case of `O=C(O)C(F)(F)C1COc2cc(OCc3cc(Cl)cc4c3OCO4)ccc21` (centres unmarked) [IIb-39], the EC50 [1] is reported as over 100 nM.

`O=C(O)C[C@@H]1COc2cc(OCc3cc(C(F)(F)F)cc4c3OC(F)(F)O4)ccc21` [IIb-54] was tested, and the EC50 [1] was 10 to 100 nM.

For `O=C(O)CC1COc2cc(OCc3ccc(Br)c4c3OCO4)ccc21` (centres unmarked) [IIb-16], the EC50 [1] was over 100 nM.

Work on `CC#CC(CC(=O)O)c1ccc(OCc2cc(NC(=O)OC(C)(C)C)cc3c2OC(F)(F)O3)cc1` (centres unmarked) [IIb-64] yielded an EC50 [1] of 10 to 100 nM.

In the case of `O=C(O)CC1COc2cc(OCc3cccc4c3OC(F)(F)O4)ccc21` (centres unmarked) [IIb-17], the EC50 [1] is reported as 10 to 100 nM.

For `O=C(O)CC1CCc2cc(OCc3cc(F)cc4c3OCO4)ccc21` (centres unmarked) [IIb-35], the EC50 [1] was 10 to 100 nM.

`O=C(O)C(Br)C1COc2cc(OCc3cccc4c3OC(F)(F)O4)ccc21` (centres unmarked) [IIb-30] was tested, and the EC50 [1] was over 100 nM.

With `O=C(O)CC1COc2cc(OCc3cccc4c3OC(F)(F)O4)c(Cl)cc21` (centres unmarked) [IIb-28] the EC50 [1] was over 100 nM.

`O=C(O)C[C@@H]1COc2cc(OCc3cc(NC(=O)OC4CCCC4)cc4c3OCO4)ccc21` [IIb-48] gave an EC50 [1] of 10 to 100 nM.

For `O=C(O)CC1COc2cc(OCc3cccc4c3OCCO4)ccc21` (centres unmarked) [IIb-19], the EC50 [1] was over 100 nM.

With `CC(C)(CC(=O)O)c1ccc(OCc2cc(F)cc3c2OCO3)cc1` [IIb-36] the EC50 [1] was over 100 nM.

Compound `O=C(O)CC1COc2cc(OCc3cccc4c3OCO4)ccc21` (centres unmarked) [IIb-01] has an EC50 [1] of over 100 nM.

In the case of `O=C(O)CC1COc2cc(OCc3cc(F)cc4c3OCCO4)ccc21` (centres unmarked) [IIb-11], the EC50 [1] is reported as over 100 nM.

Compound `O=C(O)CC1COc2cc(OCc3cccc4c3OC(F)(F)O4)c(F)cc21` (centres unmarked) [IIb-29] has an EC50 [1] of over 100 nM.

In the case of `O=C(O)CC1COc2cc(OCc3cc(Br)cc4c3OCCO4)ccc21` (centres unmarked) [IIb-09], the EC50 [1] is reported as over 100 nM.

Work on `CC(C)(C)OC(=O)Nc1cc(COc2ccc3c(c2)CCC3CC(=O)O)c2c(c1)OC(F)(F)O2` (centres unmarked) [IIb-63] yielded an EC50 [1] of 10 to 100 nM.

For `N#Cc1cc(COc2ccc3c(c2)OCC3CC(=O)O)c2c(c1)OCO2` (centres unmarked) [IIb-15], the EC50 [1] was 10 to 100 nM.

`Cc1cc(OCCCS(C)(=O)=O)cc(C)c1-c1cc(COc2ccc3c(c2)OC[C@H]3CC(=O)O)c2c(c1)OCO2` [IIb-38] showed an EC50 [1] of 10 to 100 nM.

Compound `CC(C)(C)OC(=O)Nc1cc(COc2ccc3c(c2)OC[C@H]3CC(=O)O)c2c(c1)OC(F)(F)O2` [IIb-46] has an EC50 [1] of under 10 nM and an EC50 (read-out: GPR40 activity (EC50)) of under 10 nM.

`CC#CC(CC(=O)O)c1ccc(OCc2cccc3c2OC(F)(F)O3)cc1` (centres unmarked) [IIb-62] showed an EC50 [1] of 10 to 100 nM.

Compound `O=C(O)CC1COc2cc(OCc3ccc(F)c4c3OCO4)ccc21` (centres unmarked) [IIb-12] has an EC50 [1] of over 100 nM.

`O=C(O)CC1COc2cc(OCc3cc(C(F)(F)F)cc4c3OCO4)ccc21` (centres unmarked) [IIb-14] gave an EC50 [1] of 10 to 100 nM.

`CC(C)(C)OC(=O)Nc1cc(COc2ccc3c(c2)OCC3C(F)C(=O)O)c2c(c1)OCO2` (centres unmarked) [IIb-59] gave an EC50 [1] of 10 to 100 nM.

`CC(C)(C)NC(=O)Nc1cc(COc2ccc3c(c2)OC[C@H]3CC(=O)O)c2c(c1)OCO2` [IIb-49] gave an EC50 [1] of over 100 nM.

`COc1cc(COc2ccc3c(c2)OC[C@H]3CC(=O)O)c2c(c1)OCO2` [IIb-45] gave an EC50 [1] of over 100 nM.
